Patent US10034915B2, “Small heat shock proteins and active fragments thereof as a therapy for inflammation and ischemia” (The Board of Trustees of the Leland Stanford Junior …, priority 2011, dated 2018)
“Also recorded” adds a separate entry of the source.

Columns and labels:
EAE mice [1] = experiment: EAE in 129Sv WT mice immunized with MOG35-55/CFA, clinical scoring; format: in vivo, mouse; conditions: peptide every other day from peak of disease (10 μg, or 1 μg equimolar to 10 μg protein)
Protocol: To investigate if the therapeutic efficacy of HSPB5 is a common feature of the whole family of small heat shock proteins, we expressed recombinant HSPB1, HSPB4, and HSPB5. We then treated EAE mice every other day starting at the peak of disease, when clinical paralysis is apparent, with an intraperitoneal (IP) administration of 10 μg of either HSPB1, HSPB4, HSPB5, or PBS as the vehicle control. […] Treating mice in vivo with HSPB1, HSPB4, or HSPB5 led to a reduction in the production of pro-inflammatory cytokines by MOG stimulated splenocytes taken from MOG immunized mice (FIG. 1c). Improvement of the clinical score was dependent on continued dosing of the sHSP. After dosing was stopped, symptoms returned, and paralysis worsened after 96 hours.
Therapeutic Peptides from HSPB5 in EAE. […] We made a series of overlapping, 15-mer peptide fragments of HSPB5 and treated mice at the peak of disease with 10 μg of each peptide every other day, using HSPB5 as a positive control and PBS as a negative control.
(§1) EAE induction and scoring. Mice were immunized subcutaneously with 100 μL of myelin oligodendrocyte glycoprotein (MOG) peptide 35-55 (2 mg/mL) and Complete Freund's adjuvant (CFA) (4 mg/mL) on Day 0. […] Mice were randomized at the peak of disease into the treatment groups where they received 10 ug/200 μL of sHSP, 1 μg/200 uL of sHSP peptide, or 200 μL of PBS (vehicle) every other day. Mice were scored every day on a clinical scoring system: 0, healthy mouse; 1, limp tail; 2, weak hindlimbs; 3, complete hindlimb paralysis; 4, weak forelimbs and paralyzed hindlimbs; 5, dead.

[2] = test system: pro-inflammatory cytokines of MOG stimulated splenocytes; experiment: Peripheral immune cell activation: cytokine production by MOG stimulated splenocytes of treated MOG immunized mice (ELISA); parameters: species or system mouse; conditions: mice treated in vivo; splenocytes from MOG immunized mice
Protocol: Peripheral immune cell activation and cytokine analysis. Spleens and lymph nodes were isolated from mice 9 days after immunization with MOG35-55 and CFA. Spleens were mechanically disrupted to isolate single cell splencytes suspension. Cells were cultured in flat bottomed, 96-well plates in media (RPMI 1640 supplemented with […] L-glutamine, 1 mM sodium pyruvate, 0.1 mM non-essential amino acids, 100 U/mL penicillin, 0.1 mg/mL streptomycin, 0.5 uM 2-mercaptoethanol, and 10% fetal calf serum). Cells were stimulated with MOG35-55 (5 ug/mL, 10 ug/mL, and 20 ug/mL). For all activation assays, splenocytes were pooled from three mice per group and triplicate wells were plated. Supernatants of cells were collected at the time of peak production for each cytokine (48 hrs: IL-2, IL-12p40, IL-6; 72 hrs: TNFα and IFNγ; 96 hrs: IL-17; 120 hrs: IL-10). Cytokines were measured in the supernatants using anti-mouse OPTEIA ELISA kits (BD Pharmingen for IFNγ, IL-10, IL-2, IL-6, and IL-12p40; R&D Systems for IL-17 and TNFα).

HSPB5−/− EAE mice = experiment: EAE in 129Sv HSPB5−/− mice immunized with MOG35-55/CFA; format: in vivo, mouse
Protocol: Efficacy of HSPB5 73-92 in EAE in HSPB5 deficient mice. We tested whether HSPB5 73-92 alone was sufficient to rescue EAE in alpha B crystallin deficient (HSPB5−/−) mice.
as §1, with “Mice were randomized at the peak of disease into the treatment groups where they received 10 ug/200 μL of sHSP, 1 μg/200 uL of sHSP peptide, or 200 μL of PBS (vehicle) every other day.” left out

EAE mice [3] = experiment: EAE in 129Sv WT mice immunized with MOG35-55/CFA, clinical scoring; format: in vivo, mouse; conditions: prevention paradigm
[4] = test system: partially denatured proteins; conditions: in vitro, literature; cited from earlier work

## DRFSVNLDVKHFSPEELKVK [HSPB5 73-92]
EAE mice [1]
  therapeutic efficacy of peptide in EAE (clinical scores): comparably therapeutic; also recorded: as therapeutic as HSPB5 71-85
[2]
  production of pro-inflammatory cytokines by MOG stimulated splenocytes: decrease peripheral immune activation
HSPB5−/− EAE mice; 10 ug peptide every other day from peak of disease
  disease scores: lower disease scores; also recorded: sufficient to ameliorate disease
HSPB5−/− EAE mice; treatment from Day 0
  incidence of disease, Day 11: 0%
  incidence of disease, Day 12: 0%
  incidence of disease, Day 13: 11%
  incidence of disease, Day 14: 33%
  incidence of disease, Day 15: 33%
  incidence of disease, Day 16: 33%
  incidence of disease, Day 17: 66%
  incidence of disease, Day 18: 66%
HSPB5−/− EAE mice; treatment from Day 0, vs PBS
  EAE clinical scores: ameliorated EAE
  onset of disease: delayed onset of disease
HSPB5−/− EAE mice; treatment from Day 0, vs PBS, listed as B5 73-92
  EAE clinical scores: lower EAE clinical scores
EAE mice [3]; 10 μg peptide every day from Day 0
  disease severity: ameliorated EAE
EAE mice [3]; 10 μg peptide every day from Day 0, listed as B5 73-92
  disease severity: lower disease severity
EAE mice [3]; treatment from Day 0
  onset of disease: delayed onset of disease
[4]
  molecular chaperone activity: important for molecular chaperone activity
